{
  "source": "patent US9861601B2",
  "about": "(The Board of Trustees of the Leland Stanford Junior …, priority 2012, dated 2018)",
  "key": {"[1]": {"assay": "Pharmacokinetic analysis of oral ubenimex formulation", "type": "in vivo, rat", "settings": "PEG-400/HPCD formulation", "experimental": "(§1) In the model, PH was first initiated by a single injection of a VEGFR2 inhibitor, SU5416, and monitored by weekly echocardiography. Survival of the animals was recorded on daily basis. […] After 5 weeks (day 35), animals were sacrificed after right heart catheterization. […] Oral availability of ubenimex was determined by pharmacokinetic analysis.\n(not a statin-derivative), is a well-tolerated LTA4H inhibitor that blocks LTB4 formation. […] Ubenimex efficacy in reversing PAH was dose-dependent. The sustained release oral formulation was absorbed rapidly within 2-3 hours and was eliminated from the body with a T1/2 of 12 hours.\nA 20% (w/v) aqueous solution of hydroxypropyl-β-cyclodextrin (HPCD) was added to the mixture to bring the volume to 50 ml."}, "[2]": {"tested_on": "athymic rat model of PAH", "assay": "SU5416 athymic nude rat model of PAH (PH)", "type": "in vivo", "settings": "for reversal of established PH / PH-related death: treatment started 21 days (3 wk) after SU5416, doses as in b355, assessed at wk 5", "experimental": "as §1\nThe athymic nude rat model is an accepted model of severe PAH associated with immune dysregulation. Athymic nude rats (rnu/rnu) (Charles River Laboratories) were used for these studies. Six to eight week old animals were injected subcutaneously (s.c.) with a single dose of either SU5416 (SU) (10 mg/kg) dissolved in DMSO or DMSO (vehicle) alone. All animals were maintained in normoxic conditions. PH progression was monitored by weekly echocardiography (ECHO). Survival of rats was monitored out to wk 5 when they underwent a terminal right heart catheterization. PH was confirmed by ECHO. Hemodynamic measurements included right ventricular systolic pressure (RVSP) determined by right heart catheterization and right ventricular hypertrophy (RVH) determined by the weight ratio of RV/(LV+S) (right ventricle/(left ventricle+septum)).\nAll animals were sacrificed 5 wk after SU administration for hemodynamic measurements. […] Serial improvement was observed from the time of treatment initiation. Interval improvement was manifested by decreasing RV wall thickness and increasing pulmonary artery acceleration times (PAAT) after initiation of treatment. […] Here again, the compound of Formula III was notable: treatment with that compound yielded an RVH ratio of 0.29. RVH for healthy rats is generally about 0.25."}, "[3]": {"tested_on": "model of rodent PH utilizing SU and exposure to chronic hypoxia", "assay": "Rodent PH model utilizing SU and chronic hypoxia (animals not prone to immune dysregulation)", "type": "in vivo", "settings": "therapy initiated late in disease development"}},
  "data": [
    {"smiles": "CC(C)C[C@H](NC(=O)[C@@H](O)[C@H](N)Cc1ccccc1)C(=O)O", "note": "[ubenimex, (2S)-2-[[(2S,3R)-3-amino-2-hydroxy-4-phenylbutanoyl]amino]-4-methylpentanoic acid]", "values": [
      {"measurement": "time of absorption", "setting": "[1]", "result": "≤ 2", "unit": "h"},
      {"measurement": "half-life", "setting": "[1]; athymic, rat, in vivo", "result": 720, "unit": "min"},
      {"measurement": "accumulation of 5-LO expressing periarteriolar macrophages and B cells in lungs", "setting": "[2]; SU-treated athymic rats", "result": "significantly reduced"},
      {"measurement": "in vivo PAEC apoptosis", "setting": "[2]; SU-treated athymic rats", "result": "reduced"},
      {"measurement": "improvement in RVSP, RVH and survival", "setting": "[2]; oral once a day 0.25, 0.5, 0.75, 1 mg/kg, from 3 weeks after SU5416 for 2 weeks", "result": "dose dependent improvement"},
      {"measurement": "prevention of PH development and survival", "setting": "[2]; systemic therapy initiated when SU was first administered", "result": "very effectively prevented PH development and prolonged survival"},
      {"measurement": "reversal of established PH / PH-related death", "setting": "[2]", "result": "reverses established PH"},
      {"measurement": "reversal of established PH / PH-related death", "setting": "[2]; listed as Ubenimex", "result": "dose-dependent"},
      {"measurement": "response of PH animals to therapy", "setting": "[3]", "result": "did not respond"}
    ]}
  ]
}
